Experimental data as given in paper PMC9201908, “Expansion of the Strigolactone Profluorescent Probes Repertory: The Right Probe for the Right Application” (Frontiers in Plant Science, 2022).
“Also recorded” adds a separate entry of the source. Like-named read-outs stand apart in the source and are kept apart here.

What was measured:
[1] = test system: Arabidopsis SL-deficient mutant max3-11; details: ref de Saint Germain et al., 2016; cited from earlier work
[2] = molecular target: T1, RMS3 protein (Pisum sativum, UniProt A0A109QYD3); test: Enzymatic assay with profluorescent probes, RMS3; type: biochemical; details: probe 10 μM; for Cleavage kinetics by RMS3: RMS3 400 nM, 25°C, result in words; for Cleavage of probe by RMS3: protein 0.33 μM
T1 construct: GST; made in house
T1 sequence (A0A109QYD3 1-267): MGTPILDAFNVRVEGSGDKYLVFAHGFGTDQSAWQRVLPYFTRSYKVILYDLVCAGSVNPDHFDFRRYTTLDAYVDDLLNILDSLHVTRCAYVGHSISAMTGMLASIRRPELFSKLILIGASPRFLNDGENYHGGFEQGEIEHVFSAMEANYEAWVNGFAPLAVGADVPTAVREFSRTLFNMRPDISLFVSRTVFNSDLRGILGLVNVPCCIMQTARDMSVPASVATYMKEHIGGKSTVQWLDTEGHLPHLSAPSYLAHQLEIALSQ

[3] = molecular target: T2, DAD2 (Petunia hybrida, UniProt J9U5U9); test: Enzymatic assay with profluorescent probes, DAD2; type: biochemical; details: protein 0.33 μM, probe 10 μM
T2 construct: GST (N); made in house
T2 sequence (J9U5U9 1-267): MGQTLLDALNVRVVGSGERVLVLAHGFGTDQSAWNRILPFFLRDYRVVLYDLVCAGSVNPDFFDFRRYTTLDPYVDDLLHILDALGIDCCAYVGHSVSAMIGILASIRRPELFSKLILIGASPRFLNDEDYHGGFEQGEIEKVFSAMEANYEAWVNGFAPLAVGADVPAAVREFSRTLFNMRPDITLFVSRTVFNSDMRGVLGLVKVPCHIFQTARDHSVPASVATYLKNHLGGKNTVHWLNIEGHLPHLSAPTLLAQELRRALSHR
Protocol: (§1) The enzyme activity was determined by measuring the release of the fluorescent intensities of each fluorophores resulting from the cleavage of profluorescent probes by RMS3, AtD14, OsD14, and DAD2 proteins in a SPARK M10 in a 96-well format (de Saint Germain et al., [2021a]). In the assay, using an Integra Viaflo 96 robot, 50 μL of a solution of protein at 0.33 μM in same buffer was added simultaneously in all 96 wells to 50 μL of profluorescent substrate solution (at varying concentrations, prepared from a 10 mM stock solution in 100% of DMSO) in PBS (100 mM of phosphate, pH 6.8, 150 mM of NaCl). After a lag time of 15 s, the formation of fluorophores was recorded over 3 h at 15 s intervals at 25°C. […] All experiments were repeated with three technical replicates. The fluorescence of each fluorophore was also determined for each measurement at the same time frame but in the absence of enzyme in order to determine the standard curves. For rapid enzymatic assays (Figure 8A, small panel), the solution of protein was added by the injector of the plate reader and then, the well was immediately read over 5 min with 1 s intervals. Same parameters were used to determine the fluorophore concentration.

[4] = test system: rms1-10 pea mutant plants; test: Pea shoot-branching assay by direct application on the bud, rms1-10; type: in vivo, Pisum sativum; details: for Length of bud at node 3 /branch: direct application, rms1-10, 10 days after treatment, mean per replicate; for Bioactivity on shoot branching inhibition (bud development): result in words
Protocol: (§2) Pea (Pisum sativum) branching mutant plants used in this study were described previously (Rameau et al., [1997]). The SL biosynthesis rms1-10 (M3T-884) and SL response rms3-4 (M2T-30) mutants were obtained from the dwarf cv. Térèse. Plants were grown in a greenhouse under long days as described by Braun et al. ([2012]).
(§3) The compounds to be tested were applied directly to the axillary bud with a micropipette as 10 μL of a solution containing 0.1% of acetone with 2% of polyethylene glycol 1,450, 50% of ethanol, and 0.4% of DMSO. The control 0 is the treatment with 0.1% of DMSO without compound. A total of 24 plants were sown per treatment in trays (2 repetitions of 12 plants). The treatment was done 8 days after sowing, on the axillary bud at node 3. The branches at nodes 1–2 were removed to encourage the outgrowth of axillary buds at nodes above. Nodes were numbered acropetally from the first scale leaf as node 1 and cotyledonary node as node 0. Bud growth at node 3 was measured 10 days after treatment. Plants with damaged main shoot apex or showing a dead white treated bud were discarded from the analysis. The SL-deficient rms1-10 pea mutant was used for all experiments and WT Térèse as control. SL-perceived rms3-4 pea mutant was used to test that when bioactive, the analog acts via RMS3, and it was also used to check the putative toxicity of probes.

[5] = molecular target: T3, AtD14 (Arabidopsis thaliana, UniProt Q9SQR3); test: Enzymatic assay with profluorescent probes, AtD14; type: biochemical; details: protein 0.33 μM, probe 10 μM
T3 construct: GST; made in house
T3 sequence (Q9SQR3 1-267): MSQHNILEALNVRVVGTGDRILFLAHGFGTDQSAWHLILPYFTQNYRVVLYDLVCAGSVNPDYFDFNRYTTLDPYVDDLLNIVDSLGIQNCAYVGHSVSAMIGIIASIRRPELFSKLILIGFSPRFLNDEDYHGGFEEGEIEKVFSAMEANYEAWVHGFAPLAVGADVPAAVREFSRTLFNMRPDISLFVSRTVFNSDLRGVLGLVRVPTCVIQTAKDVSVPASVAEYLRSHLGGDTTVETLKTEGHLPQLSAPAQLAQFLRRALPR
Protocol: as §1

[6] = test system: Ppccd8 mutant plants; test: Physcomitrium patens bioassay, number of filaments in the dark; type: in vivo; details: 1 μM
Protocol: Assays on Physcomitrium patens were performed on plants grown in 24-well plates, starting from very small pieces of moss tissues as described by Guillory and Bonhomme ([2021]). As for pea rms1, the Ppccd8 SL synthesis mutant was used for assays, since the effect of the compounds was better seen in this mutant vs. wild type (WT; Lopez-Obando et al., [2021]). For each treatment, 24 plants were grown in PpNO3 medium [minimal medium described by Ashton et al., [1979]], dispatched in three different plates. Plants were grown for 2 weeks under control conditions, then treated with fluorophores or probes (all compounds used at 1 μM), before being placed vertically in the dark for 10 days. A single picture of each well was taken under an Axio Zoom microscope (Zeiss) with a dedicated program. Filaments were counted using ImageJ software (http://imagej.nih.gov/ij/) as described by Guillory and Bonhomme ([2021]). Twenty-four plants were tested in each treatment.

[7] = test system: Ppccd8 mutant plants; details: WT and Ppccd8; ref Hoffmann et al., 2014; Lopez-Obando et al., 2021; cited from earlier work
[8] = molecular target: T4, OsD14 (Oryza sativa subsp. japonica, UniProt Q10QA5); test: Enzymatic assay with profluorescent probes, OsD14; type: biochemical, Ozyza sativa; details: protein 0.33 μM, probe 10 μM
T4 construct: GST (N); made in house
T4 sequence (Q10QA5 with tags, fused parts or gaps): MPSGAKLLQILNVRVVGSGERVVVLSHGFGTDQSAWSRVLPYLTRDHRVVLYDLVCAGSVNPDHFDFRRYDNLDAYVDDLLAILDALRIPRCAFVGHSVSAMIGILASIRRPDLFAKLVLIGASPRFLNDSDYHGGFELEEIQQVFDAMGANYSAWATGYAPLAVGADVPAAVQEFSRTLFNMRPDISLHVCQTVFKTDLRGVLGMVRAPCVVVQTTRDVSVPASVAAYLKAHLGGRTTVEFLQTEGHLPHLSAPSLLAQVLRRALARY
Protocol: as §1

[9] = test system: rms3-4 pea mutant plants; test: Pea shoot-branching assay by direct application on the bud, rms3-4; type: in vivo, Pisum sativum; details: rms3-4, 10 days after treatment
Protocol: as §2, §3

[10] = test system: ShD14; set-up: method as in Xu et al., 2018; details: ref Xu et al., 2018; cited from earlier work
[11] = test system: rms1-10 pea mutant plants; test: Pea shoot-branching assay by vascular supply, rms1-10; type: in vivo, Pisum sativum; details: rms1-10, 3,000 nM
Protocol: as §2
The compounds to be tested were applied by vascular supply (Muñoz et al., [2021]). The control was the treatment with 0.1% of DMSO in water. A total of 12 plants were sown per treatment in trays and were treated with probes under node 3 bud generally 10 days after sowing. Compounds in DMSO solution were diluted with water to 3,000 nM for a treatment with 0.1% (v/v) DMSO. The branches at nodes 1 and 2 were removed to encourage the outgrowth of axillary buds at the nodes above. Nodes were numbered acropetally from the first scale leaf as node 1 and cotyledonary node as node 0. Bud growth at nodes 3 and 4 was measured with digital calipers 8–10 days after treatment. Plants with damaged main shoot apex or with a dead white treated-bud were discarded from the analysis. The SL-deficient rms1-10 pea mutant was used for all experiments.

[12] = test system: Arabidopsis SL-deficient mutant max3-11; test: Hydroponic assay on Arabidopsis, rosette branches; type: in vivo, Arabidopsis thaliana; details: max3-11, hydroponic, 0.5 and 3 μM
Protocol: The hydroponic assay was adapted from the study by Cornet et al. ([2021]). Seeds were surface-sterilized for 8 min in a solution of ethanol (95%) and hypochlorite solution (10%; Bayrol, Mundolsheim, France) and were rinsed two times with ethanol (100%). Each seed was sown on top of a cut 0.5 ml Eppendorf tube filled with agar medium containing 0.65% of agar and 10% of nutritive solution of 5 mM NO3. Tubes were soaked in water and stored in the dark at 4°C for 2 days. Twelve plants per pipette tip box (13 × 9 × 7 cm) were grown and supplied with nutrient solution as in the study by Boyer et al. ([2014]) at a concentration of 5 ml/L (750 ml of solution per box). Every week, the nutrient solution was renewed and every 10 days one time, a fresh batch of treatment was added to the solution. The first treatment occurred at day 27 after sowing when plants started to bolt. The number of rosette branches was counted at day 42.

[13] = test system: rms1-10 pea mutant plants; details: direct application, rms1-10, tested previously, ref De saint Germain et al 2016, cited from earlier work
[14] = Stability of CoumarinAc and DiFMUAc (DMSO, PBS); type: physicochemical; details: in PBS and in DMSO (20°C), in comparison to CoumarinAc
Protocol: Dimethyl sulfoxide (DMSO) solution of the compound to be tested (1 mM) was incubated at 20°C in the HPLC vials. (±)-1-Indanol [Alfa Aesar, purity >97.5% (GC); 10 mM] was used as the internal standard. The samples were subjected to reverse-phase-ultra-performance liquid chromatography (RP-UPLC)-MS analyses by means of UPLC system equipped with a photo diode array (PDA) and a triple quadrupole detector (TQD) mass spectrometer (Acquity UPLC-TQD, Waters). RP-UPLC (HSS C18 column, 1.8 μm, 2.1 × 50 mm) with 0.1% (v/v) of formic acid in CH3CN and 0.1% (v/v) of formic acid in water (aq. FA, 0.1%, v/v, pH 2.8) were used as eluents [10% CH3CN, followed by linear gradient from 10 to 100% of CH3CN (4 min)] at a flow rate of 0.6 ml min^−1. The detection was done by PDA and with the TQD mass spectrometer operated in electrospray ionization-positive mode at 3.2 kV capillary voltage. To maximize the signal, the cone voltage and collision energy were optimized to 20 V and 12 eV, respectively. The collision gas used was argon at a pressure maintained near 4.5 10^−3 mBar. The relative quantity of the remaining (non-degraded) product was determined by integration comparison with the internal standard.

| SMILES | Cleavage kinetics by RMS3 [2] | Cleavage of probe by RMS3 [2] | Cleavage of probe by DAD2 [3] | Bioactivity on shoot branching inhibition (bud development) ([4]; rms1-10, direct application) | Cleavage of probe by AtD14 [5] | Activity on filament number [6] | Cleavage of probe by OsD14 [8] | Length of bud at node 3 /branch ([4]; 10 nM) | other results |
| --- | --- | --- | --- | --- | --- | --- | --- | --- | --- |
| CC1=C(C)C(Oc2c(F)cc3c(C)cc(=O)oc3c2F)OC1=O (racemic) [(±)-GC242] | Two-phase cleavage kinetics; also recorded: blocked at very low concentration; also recorded: two-phase kinetic | able to cleave | able to cleave | among the most bioactive molecules | able to cleave | confirmed the previous activity | able to cleave |  | Bioactivity in Arabidopsis [1]: previously found bioactive; Length of bud at node 3 /branch ([4]; 10,000 nM): 1.77 mm; Effect on filament number [7]: dose-dependent decrease in the filament number; Length of bud at node 3 /branch ([9]; 1,000 nM): 35.80; Length of bud at node 3 /branch ([9]; 5,000 nM): 33.76 |
| CCOC(=O)c1ccccc1-c1c2ccc(=O)cc-2oc2cc(OC3C=C(C)C(=O)O3)ccc12 (racemic) [(±)-YLG, reference compound] |  |  |  | inhibition of bud development; also recorded: less efficient than (±)-GR24 |  | less active | unable to cleave | 24.15 mm | Cleavage by ShD14 [10]: not able to cleave; Bioactivity by vascular supply compared to the coumarin derivatives series [11]: lower bioactivity; Activity on filament number, one bioassay replication ([6]; Supplementary Figure 3): no significant bioactivity; Bioactivity on number of rosette branches [12]: not bioactive |
| CC1=CC(Oc2c(F)cc3c(C)cc(=O)oc3c2F)OC1=O (racemic) [(±)-GC240] | Two-phase cleavage kinetics; also recorded: blocked at very low concentration | able to cleave | able to cleave | inhibition of bud development; also recorded: less efficient than (±)-GR24 | able to cleave |  | able to cleave |  | Length of bud at node 3 /branch ([13]; 1,000 nM): 2.52 mm; Length of bud at node 3 /branch ([13]; 5,000 nM): 2.61 mm; Affinity of the rice SL receptor suggested by cleavage profile [8]: lower affinity |
| CC(=O)Oc1c(F)cc2c(C)cc(=O)oc2c1F [DiFMUAc] |  |  |  | no effect |  |  |  | 23.71 mm | Stability [14]: poorly stable; Length of bud at node 3 /branch ([4]; 100 nM): 19.75 mm; Length of bud at node 3 /branch ([4]; 1,000 nM): 22.17 mm; Effect on axillary bud ([4]; rms1-10, direct application, 100 nM): significant effect |
